{
  "source": "patent US20180015455A1",
  "about": "“ADDITIVE CHANNELS” (Emulate Inc., priority 2016, published 2018)",
  "key": {"[1]": {"biological_target": "T1, FcγRIIa (Homo sapiens, UniProt P12318)", "T1 construct": "Blood from several human donors were aliquoted into groups for the following treatments; host or cells: platelets in citrated human whole blood from donors, perfused over HUVEC-lined chips", "T1 sequence (P12318 34-317)": "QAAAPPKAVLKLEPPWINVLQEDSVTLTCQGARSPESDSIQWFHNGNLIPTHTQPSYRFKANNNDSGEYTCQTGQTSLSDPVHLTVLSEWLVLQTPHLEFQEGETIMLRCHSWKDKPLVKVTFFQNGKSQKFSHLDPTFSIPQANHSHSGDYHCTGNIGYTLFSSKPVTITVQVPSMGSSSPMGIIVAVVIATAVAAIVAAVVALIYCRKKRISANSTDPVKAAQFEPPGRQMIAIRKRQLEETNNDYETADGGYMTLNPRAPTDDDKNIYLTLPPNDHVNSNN", "test": "Vessel-On-Chip hu5C8-mediated thrombosis, FcγRIIa dependence (platelet coverage, fibrin deposition, TAT)", "assay_type": "cell-based", "conditions": "FcγRIIa blocked with IV.3 (1 μg/ml) or non-FcγRIIa binding IgG2σ variant, with sCD40L 10 ng/ml", "description": "Recent studies conducted on humanized mice expressing the human Fcγ receptors (FCGR2A) have shown that this receptor plays a role in thrombosis leading to the IC-mediated toxicity^12,16,21. […] In order to investigate if the ICs-induced thrombosis that we observed in our vessel-on-chip system also relies on an Fc-mediated mechanism, we used two different tool molecules: IgG2a and IV.3 (FIG. 25A). The IgG2σ variant of hu5C8 has an engineered Fc region^48 that eliminates affinity for the FcγRIIa, while the monoclonal antibody IV.3 is a blocking antibody binding to FcγRIIa. Briefly, equimolar concentrations of IgG2σ or hu5c8 were incubated with 10 ng/ml of sCD40L for 20 minutes to form ICIgG2σ or IC5c8, respectively.\nSome of the blood samples were treated with IV.3 (1 μg/ml) for 10 minutes to block the FcγRIIa, and then incubated for 20 more minutes with ICs. Finally, blood alone (control) or blood incubated with IC5c8, ICIgG2σ or IV.3 was perfused through the biomimetic microfluidic-on-chip for about 10 minutes. We tested 15 donors and all the tested conditions described above were tested in duplicates and analyzed as percentage of platelet coverage based on fluorescence microscopic imaging (FIG. 25B). Five of the donors were also tested for fibrin deposition (FIG. 25C). Finally, effluents plasma obtained from a total of 7 of the donors (including the 5 mentioned before) were used to assess TAT via ELISA (FIG. 25D). […]\nBlood from several human donors were aliquoted into groups for the following treatments: controls (PBS), sCD40L, combined hu5C8/sCD40L, combined hu5C8 (IgG2σ)/sCD40L combined, and combined hu5C8/sCD40L/IV.3. Each condition was tested with a minimum of 3 donors to a maximum of 15 donors, and all conditions were tested in duplicates and analyzed for platelet coverage (FIG. 25B), fibrin deposition (FIG. 25C), or increased formation of TAT measured in the eluates (FIG. 25D). […]"}, "[2]": {"tested_on": "platelets", "test": "Vessel-On-Chip blood perfusion: platelet coverage/aggregation by fluorescence imaging", "assay_type": "cell-based, human", "protocol": "(§1) Briefly, human blood was drawn in citrate buffer and used within 4 hours. Platelets were stained using fluorescently labeled non-blocking antibodies for the platelet surface marker CD41 and low dosages of fluorescent fibrinogen were added in order to visualize fibrin deposition. Blood was re-calcified in order to re-establish the full coagulation potential, then introduced in the biomimetic vessel-on-chip from the main inlet (embodiments of inlets shown in FIG. 18A-1, FIG. 18A-2 and FIG. 19C). The outlet of the chip was connected to a pulling syringe pump with a system of tubing and connectors made of medical grade silicon that excludes any metal components or potential causes of platelet activation (FIG. 5A).\nPlatelets were labeled with human CD41-PE antibody (10 μL/ml, Invitrogen) directly added to the blood and incubated at room temperature for 5 minutes.\nA medical grade plastic reservoir was mounted on the chip, then 800 μl of the blood sample was pipetted into the reservoir. The chip was perfused with the blood by withdrawing it at a rate of 60 μl/minute using a syringe pump. The citrated blood was re-calcified 2 minutes after the beginning of each experiment by adding 100 μl/ml of a solution containing 100 mM calcium chloride and 75 mM magnesium chloride to the blood to permit calcium- and magnesium-dependent platelet function and coagulation.\n(§2) Chips perfused with blood samples were immediately imaged via fluorescence microscopy (Olympus IX83, 10× objective UPLFLN10X2, Orca-Flash4.0 CMOS Camera). Each chamber was inspected along its entire length and 5 images (about 0.25 cm) were captured from the central area of the chamber. Image processing and quantification was performed with an automatic macro compiled in ImageJ and numerical values corresponding to platelet coverage or fibrin florescence were collected and statistically analyzed in Graphpad Prism V7.\n(§3) A percentage of signal coverage (or Platelet coverage) was computed from the binary image as the ratio of bright pixels to the total number of pixels in the image. Image processing and quantification was performed with an automatic macro compiled in ImageJ in order to ensure unbiased signal measurements. Numerical values corresponding to platelet coverage or fibrin fluorescence (signal intensity) were collected and statistically analyzed in Graphpad Prism V7."}, "[3]": {"conditions": "hu5C8: lupus nephritis clinical study; IDEC-131: Crohn's disease clinical trial; cited from earlier work"}, "[4]": {"tested_on": "platelets", "test": "Platelet activation quality control by p-selectin expression", "assay_type": "cell-based, human", "conditions": "control blood upon activation by ADP", "protocol": "To test for a thrombic event, blood was collected from 4 donors, the as blood alone or blood treated with hu5C8 alone (240 μg/mL), sCD40L (10 ng/ml) alone or with combined hu5C8/sCD40L was incubated for 20 minutes at room temperature. Each sample was further incubated for 5 minutes with fluorescent labels for platelets and fibrinogen. As a standard quality control, the control blood was tested for platelet activation using p-selection expression. We confirmed that platelets in control blood were not activated but upon activation by ADP, over 90% of platelet was positive for p-selectin."}, "[5]": {"tested_on": "ICAM1", "test": "ICAM1 immunostaining of endothelium", "assay_type": "cell-based, human", "conditions": "TNF-α stimulated endothelium"}, "[6]": {"tested_on": "thrombin anti-thrombin complex (TAT)", "test": "Thrombin anti-thrombin (TAT) ELISA in chip effluent plasma", "assay_type": "cell-based, human", "protocol": "Thrombin converts fibrinogen into fibrin during clot formation, and anti-thrombin plays a role in maintaining homeostasis by inhibiting the effect of thrombin. Formation of TAT in the microdevice confirms that local and intrinsic generation of thrombin, a potent platelet agonist, occurs in the model and that counter regulatory mechanisms for coagulation are retained. Thus, blood sampled from the Vessel-On-Chip was analyzed for thrombin anti-thrombin complex (TAT), an accepted clinical biomarker for procoagulation^48,49. TAT refers to a factor released upon activation of the coagulation cascade and one of the biomarkers associated with thrombotic events occurring in patients affected with deep vein thrombosis (DVT) or Systemic lupus erythematosus (SLE)^45,46. An enzyme-linked immunosorbent assay (ELISA) was used to quantify the thrombin anti-thrombin complex (TAT).\nThrombin Anti-Thrombin (TAT) levels were analyzed in plasma from blood flowing out of the chip device by removing a sample from the outflow port. Thus TAT levels were evaluated in sample effluents collected from the outflow port of the chip using the Human TAT ELISA Kit (Siemens Healthineers) according to the user manual.\nBlood sampled from the Vessel-On-Chip outflow port was analyzed for thrombin anti-thrombin complex (TAT), a factor released upon activation of the coagulation cascade and one of the biomarkers associated with thrombotic events occurring in patients affected with deep vein thrombosis (DVT) or SLE^45,46. TAT is an accepted clinical biomarker for procoagulation^48,49. An enzyme-linked immunosorbent assay (ELISA) was used to quantify the thrombin anti-thrombin complex (TAT)."}, "[7]": {"tested_on": "fibrin", "test": "Vessel-On-Chip blood perfusion: fibrin deposition (fluorescent fibrinogen)", "assay_type": "cell-based, human", "protocol": "as §1\nWhen analyzing the formation of fibrin, […] of fluorescently labeled fibrinogen (Alexa 488, Invitrogen) was also added to the blood. While fluorescent fibrinogen was barely detected as a diffused fluorescence, fibrin deposition on inflamed cells and sparse clots was easily distinguished since fibrin formed filamentous structures produce a signal intensity that is clearly observed above a background threshold.\nas §2, with “Each chamber was inspected along its entire length and 5 images (about 0.25 cm) were captured from the central area of the chamber.” left out\nas §3"}, "[8]": {"conditions": "pro-thrombotic stimulus vs blood alone, TNF-α 50 ng/ml 6 hours on endothelium, sCollagen 10 μg/ml in blood"}, "[9]": {"conditions": "Eptifibatide 2 ug/ml, endothelium inflamed with TNF-α, n=4"}},
  "note": "“Also recorded” adds a separate entry of the source. Positions of bridges follow the written chain, without caps; N, C: chain ends. Non-standard residues stand in square brackets, D forms with d. Residues, ends and D or L forms follow the SMILES beside them. hArg = N=C(N)NCCCC[C@H](N)C(=O)O; Mpa = O=C(O)CCS",
  "data": [
    {"molecule": "hu5C8 (IgG2σ): IgG2σ variant of hu5C8 with an engineered Fc region that eliminates affinity for FcγRIIa", "values": [
      {"measurement": "hu5C8-mediated thrombosis on-chip (all endpoints)", "setting": "[1]", "result": "did not show signs of thrombosis"},
      {"measurement": "hu5C8-mediated thrombosis on-chip (all endpoints)", "setting": "[1]; listed as IgG2σ", "result": "suppressed"},
      {"measurement": "hu5C8-mediated thrombosis on-chip (all endpoints)", "setting": "[1]; listed as hu5C8-IgG2σ", "result": "not detected"}
    ]},
    {"molecule": "hu5C8: humanized monoclonal IgG1 antibody against CD40L (anti-CD154)", "values": [
      {"measurement": "treatment-related effects compared to untreated blood", "setting": "[2]; hu5C8 alone 240 μg/mL or sCD40L alone 10 ng/ml, 4 donors, 60 μl/minute", "result": "no significant treatment-related effects"},
      {"measurement": "incidence of thromboembolic events", "setting": "[3]", "result": "2/18"}
    ]},
    {"molecule": "Nc1ncnc2c1ncn2[C@@H]1O[C@H](COP(=O)(O)OP(=O)(O)O)[C@@H](O)[C@H]1O", "note": "[ADP]", "values": [
      {"measurement": "platelets positive for p-selectin", "setting": "[4]", "result": "over 90%"}
    ]},
    {"molecule": "TNF-α", "values": [
      {"measurement": "ICAM1 expression in the endothelium compared to control", "setting": "[5]", "result": "increased expression; also recorded: higher"},
      {"measurement": "levels of TAT in outflow samples", "setting": "[6]; after treatment, FIG. 22B", "result": "significantly increased; also recorded: elevated levels"},
      {"measurement": "platelet coverage", "setting": "[2]; [8]", "result": "significantly increased"},
      {"measurement": "fibrin deposition / fibrin signal intensity", "setting": "[7]; [8]", "result": "significantly increased"}
    ]},
    {"molecule": "N=C(N)NCCCC[C@@H]1NC(=O)CCSSC[C@@H](C(N)=O)NC(=O)[C@@H]2CCCN2C(=O)[C@H](Cc2c[nH]c3ccccc23)NC(=O)[C@H](CC(=O)O)NC(=O)CNC1=O", "note": "[Eptifibatide] ([Mpa][hArg]GDWPC-NH2; disulfide 1-7)", "values": [
      {"measurement": "effect on TAT increment associated with TNF-α-induced inflammation", "setting": "[6]; Eptifibatide treatment", "result": "did not inhibit"},
      {"measurement": "effect on TAT increment due to sCollagen treatment", "setting": "[6]; Eptifibatide treatment", "result": "entirely suppressed"},
      {"measurement": "inhibition of platelet aggregation", "setting": "[2]; [9]", "result": "significantly inhibited"},
      {"measurement": "inhibitory effect on platelet aggregation and fibrin clot formation", "setting": "[2]; Eptifibatide 2 ug/ml, following treatment with sCollagen, n=4", "result": "comparatively modest"},
      {"measurement": "platelet adhesion (image analysis of multiple experiments)", "setting": "[2]; Eptifibatide 2 ug/ml, n=4", "result": "completely inhibited"},
      {"measurement": "effect on platelet coverage and fibrin deposition in stimulated, pro-thrombotic conditions", "setting": "[2]; Eptifibatide added, TNF-α or sCollagen, n=4", "result": "suppressed; also recorded: inhibited"},
      {"measurement": "inhibition of fibrin clot formation", "setting": "[7]; [9]", "result": "significantly inhibited"},
      {"measurement": "fibrin signal remaining with Eptifibatide", "setting": "[7]; Eptifibatide 2 ug/ml, samples treated with TNF-α", "result": "still detectable"}
    ]}
  ]
}
